Assay results taken from patent publication US7662852B2, “Compounds and preparations having antiviral effect” (Lead Chemical Co., Ltd., priority 2003, dated 2010).

Columns and labels:
HIV-1 IIIB = conditions: for Anti-HIV Activity EC50: MT-4 cell infected with T-cell tropic strain HIV-1 IIIB, MOI 0.01, 5 days, MTT; for Safety Index S.I. CC50/EC50 / anti-HIV activity in vitro (in words): MT-4 cell, HIV-1 IIIB
Description: (§1) For this experiment, human T-cell leukemia virus I (HTLV-I) infected T cell strain, MT-4 cell and T cell leukemia cell strain, MOLT-4 (clone No. 8) cell, HIV-1 continuous infection cell, MOLT-4/IIIB cell were used. The cell was cultured in RPMI-1640 medium (SIGMA) supplemented with 10% inactivated fetal calf plasma (FCS) (MOREGATE, Australia), 100 μg/ml streptomycin and 100 U/ml penicillin G (SIGMA) under a condition of 5% CO2 and 37° C. Subculture was performed every three days by controlling the density to 30×10^4 cells/ml.
HIV-1 IIIB was prepared from the supernatant of MOLT-4/IIIB cell.
MOLT-4/IIIB cell was controlled to a density of 30×10^4 cells/ml and then the culture was started. The cultured liquid was collected three days later, and centrifuged at 3000 rpm for 10 minutes at 4° C. […] These supernatants were passed through 0.45 μm filter. The virus stocks were frozen and stored at −80° C. The amount of virus was adjusted depending on an amount of p24.
• 1) in vitro activity: A phorbol derivative was dissolved in an amount of 1.0 mg in 1.0 ml of DMSO to obtain a concentrated solution.
(§2) The anti-HIV activity of each sample to be tested was evaluated by measuring inhibition activity against cytopathogenicity induced by HIV-1 according to MTTassay. The assay was performed in a triplicate mode, and anti-HIV activity and cytotoxicity were measured simultaneously.
(§3) 96-well plate was used, 10% FCS/RPMI-1640 medium was added in inner 60 wells in an amount of 100 μl/well, and in outer 36 wells in an amount of 200 μl/well in order to prevent evaporation.
(§4) The samples to be tested that were adjusted with RPMI-1640 medium were added in an amount of 25 μl/well in the first lane of the inner 60 wells, and 5-fold stepwise dilution series were prepared by manipulating pipette. In addition, in the last lane, no sample to be tested was added and regarded as control. MT-4 cell suspended in 30×10^4 cells/ml was prepared in two flasks, and the cells in one flask were infected with HIV-1 IIIB in a multiplicity of infection (MOI) of 0.01. The infected or non-infected MT-4 cells were immediately added to samples to be tested in an amount of 100 μl/ml, and cultured under a condition of 5% CO2 and 37° C.
5 days later, the viability of cells was measured based on MTT method by use of Titertek Multiskan.

MT-4 cell = conditions: non-infected MT-4 cell, 5 days, MTT
Description: as §1, §2, §3, §4
5 days later, the viability of cells was measured based on MTT method by use of Titertek Multiskan. MTT adjusted to 7.5 mg/ml with PBS (Ca++, Mg++*free phosphate-buffered saline) was added in an amount of 20 μl/well, and cultured under a condition of 5% CO2 and 37° C., 150 μl of the cultured supernatant was removed and then 100 μl of cytolysis solution (5% (v/v)TritonX-100/acid isopropanol) was added and stirred on a plate mixer for 30 minutes.
The absorbance (reference wavelength: 690 nm) was determined with a plate reader at 540 nm. […] Further, ratio of CC50 to EC50, that is, selective index (SI=CC50/EC50) was calculated.

HIV-1 JRCSF = conditions: NPB-11 1 ng/ml, PBMC infected with HIV-1 JRCSF, 7 days
Description: JRCSF was obtained by culturing 293T cell transfected with 15 μg of virus DNA and collecting the cultured liquid two days later. These supernatants were passed through 0.45 μm filter. The virus stocks were frozen and stored at −80° C. The amount of virus was adjusted depending on an amount of p24.
The infection to peripheral blood mononuclear cells (PBMC) of JRCSF and the evaluation of the anti-HIV activity were performed as follows. 1×10^6 cells/ml of PBMC was inoculated with JRCSF having 20 ng of p24, and the cells were washed 2 hours later. Thereafter, the cells were cultured in a culture liquid containing an agent to be tested for 7 days, and the antiviral activity was detected by measuring p24.
The anti-HIV effect was evaluated by determining the amount of p24 that is one of viral gap proteins and calculating its reduced amount.

[1] = mouse plasma 37° C. 30 min / living organism
Description: (§5) • 1) in vitro activity: A phorbol derivative was dissolved in an amount of 1.0 mg in 1.0 ml of DMSO to obtain a concentrated solution. A sample to be tested was prepared by diluting the concentrated solution with a saline or a phosphate buffer to a predetermined concentration. • 2) stability in blood: 1 ml of blood from the abdominal aorta of 6- to 7-week-old BALB/c male mouse was withdrawn in an injector in which 0.1 ml of 3.8% sodium citrate was contained, and centrifuged at 5000 rpm for 10 minutes to obtain a plasma. The plasma was added in a solution to be tested in a proportion of 9:1 to prepare a diluted solution to be tested in a predetermined concentration of 10-fold dilution. The diluted solution was incubated at 37° C. for 30 minutes to prepare a sample to be tested. • 3) in situ activity: the above-mentioned sample to be tested 1) was orally administered to 6- to 7-week-old BALB/c male mouse in a dose of 1 mg/kg, at 20, 40 and 60 minutes after the administration, blood was withdrawn from the abdominal aorta under light anesthetization similarly to those of the 2) above, and the plasma from the blood was used as a sample to be tested.

[2] = 30 min
Description: as §5

With `CCCCCCCCCC(=O)OC12C(OC(=O)CC)C(C)C3(O)C(C=C(CO)CC4(O)C(=O)C(C)=CC43)C1C2(C)C` (centres unmarked) [NPB-5] the “Anti-HIV Activity EC50” value (HIV-1 IIIB) was greater than 1000 ng ng/ml, the “Safety Index S.I. CC50/EC50” value (HIV-1 IIIB) was 125< and the “anti-HIV activity in vitro (in words)” value (HIV-1 IIIB) was “lowered in the activity”. The “Cytotoxicity CC50” value (MT-4 cell) was 125 µg/mL.

In the case of `CCCCCCCCCC(=O)OC12C(OC(=O)CCC)C(C)C3(O)C(C=C(CO)CC4(O)C(=O)C(C)=CC43)C1C2(C)C` (centres unmarked) [NPB-9], the “Anti-HIV Activity EC50” value (HIV-1 IIIB) is reported as greater than 1000 ng ng/ml, the “Safety Index S.I. CC50/EC50” value (HIV-1 IIIB) is reported as 125< and the “anti-HIV activity in vitro (in words)” value (HIV-1 IIIB) is reported as “lowered in the activity”. The “Cytotoxicity CC50” value (MT-4 cell) was 125 µg/mL.

With `CCCCCCCCCC(=O)OC12C(OCOC)C(C)C3(O)C(C=C(CO)CC4(O)C(=O)C(C)=CC43)C1C2(C)C` (centres unmarked) [NPB-11] the “Anti-HIV Activity EC50” value (HIV-1 IIIB) was 1.7 ng/mL, the “Safety Index S.I. CC50/EC50” value (HIV-1 IIIB) was 4066 and the “anti-HIV activity in vitro (in words)” value (HIV-1 IIIB) was “strong activity”. For the same compound, the “Cytotoxicity CC50” value (MT-4 cell) was 6.9123 µg/mL and the “amount of viral protein p24 (antiviral effect)” value (HIV-1 JRCSF) was “little viral protein was detected”.

In the case of `CCCCCCCCCC(=O)OC12C(OC)C(C)C3(O)C(C=C(CO)CC4(O)C(=O)C(C)=CC43)C1C2(C)C` (centres unmarked) [NPB-13], the “Anti-HIV Activity EC50” value (HIV-1 IIIB) is reported as 118.9 ng/mL, the “Safety Index S.I. CC50/EC50” value (HIV-1 IIIB) is reported as 39 and the “anti-HIV activity in vitro (in words)” value (HIV-1 IIIB) is reported as “weak activity”. The “Cytotoxicity CC50” value (MT-4 cell) was 4.6173 µg/mL and the “Biological Stability” value [1] was “Stable”.

For `CCCCCCCCCC(=O)OC12C(OCC)C(C)C3(O)C(C=C(CO)CC4(O)C(=O)C(C)=CC43)C1C2(C)C` (centres unmarked) [NPB-14], the “Anti-HIV Activity EC50” value (HIV-1 IIIB) was 195.7 ng/mL, the “Safety Index S.I. CC50/EC50” value (HIV-1 IIIB) was 17 and the “anti-HIV activity in vitro (in words)” value (HIV-1 IIIB) was “weak activity”. The “Cytotoxicity CC50” value (MT-4 cell) was 3.3240 µg/mL, the “Biological Stability” value [1] was “Stable” and the “Heat Stability 56° C., 30′” value [2] was “unstable to heat compared with NPB-11”.

In the case of `CCCCCCCCCC(=O)OC12C(OC(C)=O)C(C)C3(O)C(C=C(CO)CC4(O)C(=O)C(C)=CC43)C1C2(C)C` (centres unmarked) [Sample N-6, reference compound], the “Anti-HIV Activity EC50” value (HIV-1 IIIB) is reported as 1.7 ng/mL, the “Safety Index S.I. CC50/EC50” value (HIV-1 IIIB) is reported as 1920 and the “anti-HIV activity in vitro (in words)” value (HIV-1 IIIB) is reported as “extremely strong anti-HIV activity”. The “Cytotoxicity CC50” value (MT-4 cell) was 3.2638 µg/mL and the “Heat Stability 56° C., 30′” value [2] was “Stable”.
